Structures are written as SMILES.

The target in one assay is T1, ADP P2Y12 receptor (Homo sapiens, UniProt Q9H244).
T1 construct: expressed in transfected cells
The assay is described as follows: FLIPR calcium assay transducing Gi-coupled signaling to the Gq pathway (inhibition of ADP-induced calcium mobilization). It is filed as cell-based. Conditions: HEK 293 cells co-transfected with P2Y12 and Gqi5, ADP at EC60-70 dose. From the text: A FLIPR Calcium Assay Transducing Gi-Coupled Signaling to the Gq Pathway
The ADP P2Y12 subtype is a Gi coupled GPCR, which mediates inhibition of adenylate cyclase leading to decreased cAMP while Gq proteins primarily activate phospholipase C, which stimulates inositol-1,4,5-triphosphate (IP3) formation and a subsequent increase in intracellular Ca^2+ concentration, which can be easily measured by FLIPR. Prior to the development of a method to convert a Gi coupled GPCR signaling to a Gq coupled GPCR signaling, a significant barrier existed for the functional testing and screening of Gi coupled GPCRs. One popular method, GTPγS migration, is slow, produces a small signal and generates radioactive waste. The discovery that a small switch in the amino acid sequence in the Gi protein could convert it to a protein mediating a Gq coupled response has led to the development of robust, high throughput assays for this valuable receptor subtype.
The FLIPR-based HTS assay transducing the Gi signaling to the Gq pathway is described below.
pcDNA3hygroP2Y12 containing a hygromycin resistance gene and pLEC1-Gqi5-HA containing a neomycin resistance gene (licensed from Molecular Devices, Sunnyvale, Calif.) were co-transfected into Human embryonic kidney (HEK) 293 cells with SuperFect (Qiagen, Valencia, Calif.). Cell clones were selected in the presence of 600 μg/ml hygromycin B (Life Technologies, Carlsbad, Calif.) and 1 mg/ml of G418 (Mediatech, Herndon, Va.). Drug resistant colonies were picked and screened by FLIPR and the gene expression was further confirmed by RT-PCR. Positive clones were maintained in growth medium (DMEM supplemented with 10% FBS, 1× p/s) containing 400 μg/ml of G418 and 200 μg/ml of hygromycin.
The day before the assay, cells are seeded in clear, flat-bottom black-wall, tissue culture treated polystyrene 96- or 384-well plates and incubated at 37° C., 5% CO2. 50 μl of complete dye loading solution (FLIPR Calcium Assay Kit, Molecular Devices) was added to each well containing 100 μl of culture media. The cells were incubated for at least 30 min at 37° C., in 5% CO2 before initiating the assay on the FLIPR. The agonist effect of ADP was tested and EC50 was determined prior to compound testing. The EC60-70 dose was used.
The antagonist compounds were prepared at 4× and the agonists were diluted at 5× the concentration desired in the test wells, and then aliquoted into the sample plates. The sample plates and the cell plate were placed in the FLIPR assay chamber. A first addition (50 μl) was made at the start of reading and a second addition (50 μl) was made after 5 min of reading. Raw fluorescence data was exported for each well and tabulated versus time within an ASCII file. Data was then imported into Excel and the peak response over the basal level was determined. The percent inhibition for each compound was calculated by the change in fluorescent density as a % inhibition of the control ADP response to obtain an IC50, as shown in Table 1 (wherein N/A means Not Applicable).
A general note: Calcium flux is commonly read through the fluorescence of an indicator in the cells.

The next assay deals with T2, P2Y12 receptor (Homo sapiens, UniProt Q9H244).
T2 construct: expressed in transfected cells
T2 sequence (Q9H244 whole entry): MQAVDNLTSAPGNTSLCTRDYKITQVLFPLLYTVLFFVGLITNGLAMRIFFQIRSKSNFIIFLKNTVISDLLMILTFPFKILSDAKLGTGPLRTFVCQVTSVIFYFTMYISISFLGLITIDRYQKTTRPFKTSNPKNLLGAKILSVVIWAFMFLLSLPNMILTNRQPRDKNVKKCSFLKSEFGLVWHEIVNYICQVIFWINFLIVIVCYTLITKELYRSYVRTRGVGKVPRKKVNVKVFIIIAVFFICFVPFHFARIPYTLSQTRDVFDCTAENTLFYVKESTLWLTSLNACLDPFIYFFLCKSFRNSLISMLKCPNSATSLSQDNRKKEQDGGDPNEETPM
The assay is described as follows: Whole cell receptor binding assay, 2-MeS[3H]-ADP. The following applies: HEK 293 cells stably transfected with P2Y12; 2-MeS[3H]-ADP 3 nM; 30 min at 37° C.; read-out: Inhibition of Receptor Binding (IC50 μM). As to the method:
A whole cell-binding assay for 2-MeS [^3H]-ADP (Custom synthesized by Amersham BioScience, Piscataway, N.J.) to the P2Y12 receptor was performed.
A P2Y12 cDNA containing hygromycin resistant gene was transfected in HEK 293 cells. A stable cell line was obtained by a cloning selection method. The cells were cultured in DMEM supplemented with 10% FBS and 1× of p/s.
On the day of the assay, the cells were harvested and resuspended in 0.25% BSA-DMEM and adjusted to a cell concentration of 1.6×10^6/ml. 15 μl of each compound was mixed with 120 μl of cell suspension in 96 well assay plates and incubated for 5 min prior to the addition of the radio-labeled ligand 2-MeS[^3H]-ADP (3 nM final in 0.25% BSA-DMEM) or unlabeled […] (for non-specific binding). The reaction was then incubated for 30 min at 37° C. and stopped by adding cold DMEM. The labeled and unlabeled cells were separated by a filtration method using a Packard Filtermate 196 on to the unfilter-96 GF/B plate. The plates were dyed in a 37° C. oven for 1-2 hours and 50 μl of MicroScint-20 (PerkinElmer) was added to each well. The radioactivity was measured using a TOPCOUNT beta counter (Packard). The percent inhibition for each compound was calculated by the change in radioactivity as a % inhibition of the control to obtain an IC50, as shown in Table 2.

The next assay deals with platelets. The assay is described as follows: In vitro platelet aggregation (ADP-induced, washed platelets). It is filed as cell-based. Conditions: Homo sapiens, washed platelets from healthy volunteers, agonist giving 60-70% aggregation, % inhibition of control ADP response. As to the method:
Platelet aggregation studies were performed according to a published method (Bednar, B., Condra, C., Gould, R. J., and Connolly, T. M., Throm. Res., 77:453-463 (1995). Platelet-rich plasma (PRP) concentrates prepared from healthy volunteers who were aspirin free for at least 7 days by venipuncture using ACD-A as anticoagulant was purchased from Biological Specialties, Inc. (Colmar, Pa.). PRP was centrifuged at 730 g for 15 min. The platelet pellet was washed twice in CGS buffer (13 mM sodium citrate, 30 mM glucose, 120 mM NaCl, pH 6.5) containing 1 μ/ml apyrase (grade V, Sigma-Aldrich, St. Louis, Mo.), 1 mM EGTA, and resuspended in Tyrode's buffer (140 mM NaCl, 2.7 mM KCl, 12 mM NaHCO3, 0.76 mM Na2HPO4, 5.5 mM dextrose, 5.0 mM Hepes, 0.2% BSA, pH 7.4). The platelets were diluted to 3×10^8 platelets/ml and kept >45 min at 37° C. before use. 105 μl of washed platelets, 2 mM CaCl2 and […] of fibrinogen were added to a 96-well microliter plate.
Platelet aggregation was initiated by the addition of serial concentrations of ADP (BioData Corp. Horsham, Pa.). Buffer was added to one set of control wells. The assay plate was stirred constantly and intermittently placed in a microplate reader (Softmax, Molecular Devices, Menlo Park, Calif.) to read optical density (650 nm) at 0 and 5 minutes after the addition of the compound solutions. Aggregation was calculated as the decrease in optical density between the time 0- and 5-min measurements and expressed as % of aggregation. For the inhibition assay, platelet aggregation was conducted as described above except for compound additions. Test compounds were prepared in 100% DMSO and stored.
On the day of the assay, test compounds were diluted in the buffer containing 3% of DMSO as a 10× working solution. 15 μl of compound solutions were added to 105 μl of platelets 5 min prior to the addition of CaCl2 and fibrinogen.

T1 sequence (Q9H244 whole entry): as above

`CCCSc1nc(N[C@@H]2C[C@H]2c2ccccc2)c2nnn([C@@H]3C[C@H](Cn4nccn4)[C@@H](O)[C@H]3O)c2n1` (mixture of isomers) [Cpd 6, (1R,2S,3R,5R)-3-{7-[(1RS,2SR)-2-phenyl-cyclopropylamino]-5-propylsulfanyl-[1,2,3]triazolo[4,5-d]pyrimidin-3-yl}-5-[1,2,3]triazol-2-ylmethyl-cyclopentane-1,2-diol]: the IC50 – broadly, the concentration needed to halve the response being measured – is 0.98 µM at ADP P2Y12 receptor, 0.437 µM at P2Y12 receptor and 0.954 µM in the assay with platelets.

In the case of `CCCSc1nc(N[C@@H]2C[C@H]2c2ccccc2)c2nnn([C@@H]3C[C@H](Cn4ccnn4)[C@@H](O)[C@H]3O)c2n1` (mixture of isomers) [Cpd 7, (1R,2S,3R,5R)-3-{7-[(1RS,2SR)-2-phenyl-cyclopropylamino]-5-propylsulfanyl-[1,2,3]triazolo[4,5-d]pyrimidin-3-yl}-5-[1,2,3]triazol-1-ylmethyl-cyclopentane-1,2-diol], the IC50 was 0.507 µM at ADP P2Y12 receptor, 0.134 µM at P2Y12 receptor and 0.333 µM in the assay with platelets.

Consider `CCCCNc1nc(SCCC)nc2c1nnn2[C@@H]1C[C@H](c2nnn[nH]2)[C@@H](O)[C@H]1O` [Cpd 2, (1R,2S,3R,5R)-3-(7-butylamino-5-propylsulfanyl-[1,2,3]triazolo[4,5-d]pyrimidin-3-yl)-5-(1H-tetrazol-5-yl)-cyclopentane-1,2-diol], for which the IC50 came out at 0.045 µM on ADP P2Y12 receptor, 0.0137 µM at P2Y12 receptor and 0.315 µM in the assay on platelets.

Take `CCCSc1nc(N[C@@H]2C[C@H]2c2ccccc2)c2nnn([C@@H]3C[C@H](c4nnn[nH]4)[C@@H](O)[C@H]3O)c2n1` [Cpd 22, (1R,2S,3R,5R)-3-{7-[(1R,2S)-2-phenyl-cyclopropylamino]-5-propylsulfanyl-[1,2,3]triazolo[4,5-d]pyrimidin-3-yl}-5-(1H-tetrazol-5-yl)-cyclopentane-1,2-diol]: the IC50 on ADP P2Y12 receptor turned out to be 0.024 µM; at P2Y12 receptor it was 0.002 µM; in the assay with platelets it was 0.002 µM.

Turning to `CCCSc1nc(N[C@@H]2C[C@H]2c2ccccc2)c2nnn([C@@H]3C[C@H](Cn4ccnc4)[C@@H](O)[C@H]3O)c2n1` (mixture of isomers) [Cpd 5, (1S,2R,3R,5R)-3-imidazol-1-ylmethyl-5-{7-[(1RS,2SR)-2-phenyl-cyclopropylamino]-5-propylsulfanyl-[1,2,3]triazolo[4,5-d]pyrimidin-3-yl}-cyclopentane-1,2-diol], the IC50 came to 0.805 µM on ADP P2Y12 receptor, 0.26 µM at P2Y12 receptor and 0.529 µM with platelets.

With `CCCCNc1nc(SCCC)nc2c1nnn2[C@@H]1C[C@H](C2=NCCN2)[C@@H](O)[C@H]1O` [Cpd 11, (1R,2S,3R,5R)-3-(7-butylamino-5-propylsulfanyl-[1,2,3]triazolo[4,5-d]pyrimidin-3-yl)-5-(4,5-dihydro-1H-imidazol-2-yl)-cyclopentane-1,2-diol], the IC50 on ADP P2Y12 receptor is above 30 µM; on P2Y12 receptor, 4.61 µM; with platelets, above 30 µM.

With `CCCSc1nc(N[C@@H]2C[C@H]2c2ccccc2)c2nnn([C@@H]3C[C@H](Cn4cnnn4)[C@@H](O)[C@H]3O)c2n1` (mixture of isomers) [Cpd 4, (1R,2S,3R,5R)-3-{7-[(1RS,2SR)-2-phenyl-cyclopropylamino]-5-propylsulfanyl-[1,2,3]triazolo[4,5-d]pyrimidin-3-yl}-5-tetrazol-1-ylmethyl-cyclopentane-1,2-diol], the IC50 on ADP P2Y12 receptor turned out to be 0.799 µM; at P2Y12 receptor it was 0.371 µM; with platelets it was 1.15 µM.

On to `CCCSc1nc(NCC(F)(F)F)c2nnn([C@@H]3C[C@H](c4nnn[nH]4)[C@@H](O)[C@H]3O)c2n1` [Cpd 8, (1R,2S,3R,5R)-3-[5-propylsulfanyl-7-(2,2,2-trifluoro-ethylamino)-[1,2,3]triazolo[4,5-d]pyrimidin-3-yl]-5-(1H-tetrazol-5-yl)-cyclopentane-1,2-diol], for which the IC50 on ADP P2Y12 receptor was 3.12 µM; at P2Y12 receptor it was 0.665 µM; with platelets, 1.21 µM.

In the case of `CCCSc1nc(NCCc2cccs2)c2nnn([C@@H]3C[C@H](c4nnc(C)[nH]4)[C@@H](O)[C@H]3O)c2n1` [Cpd 15, (1S,2R,3R,5R)-3-(5-methyl-4H-[1,2,4]triazol-3-yl)-5-[5-propylsulfanyl-7-(2-thiophen-2-yl-ethylamino)-[1,2,3]triazolo[4,5-d]pyrimidin-3-yl]-cyclopentane-1,2-diol], the figures for the IC50 at ADP P2Y12 receptor, at P2Y12 receptor and in the assay with platelets were 10.4 µM, 3.74 µM and 6.47 µM, respectively.

As for `CCCSc1nc(NCC2CC2)c2nnn([C@@H]3C[C@H](c4nnn[nH]4)[C@@H](O)[C@H]3O)c2n1` [Cpd 10, (1R,2S,3R,5R)-3-[7-(cyclopropylmethyl-amino)-5-propylsulfanyl-[1,2,3]triazolo[4,5-d]pyrimidin-3-yl]-5-(1H-tetrazol-5-yl)-cyclopentane-1,2-diol], the values for the IC50 on ADP P2Y12 receptor, at P2Y12 receptor and in the assay with platelets were 0.542 µM, 0.139 µM and 1.54 µM, respectively.

Consider `CCCSc1nc(N[C@@H]2C[C@H]2c2ccccc2)c2nnn([C@@H]3C[C@H](c4nnc(C)[nH]4)[C@@H](O)[C@H]3O)c2n1` (mixture of isomers) [Cpd 14, (1S,2R,3R,5R)-3-(5-methyl-4H-[1,2,4]triazol-3-yl)-5-{7-[(1RS,2SR)-2-phenyl-cyclopropylamino]-5-propylsulfanyl-[1,2,3]triazolo[4,5-d]pyrimidin-3-yl}-cyclopentane-1,2-diol], for which the IC50 on ADP P2Y12 receptor was 0.265 µM; at P2Y12 receptor, 0.735 µM; in the assay with platelets, 0.064 µM.
